According to patent US20160287646A1, “MACROALGAE COMPOSITIONS, PROCESSES FOR PREPARATION THEREOF, AND USES IN SPORTS NUTRITION” (OmniActive Health Technologies (Canada) Limited, priority 2015, published 2016):

Key:
PGC-1α = experiment: PGC-1alpha ELISA in differentiated C2C12 cells; format: cell-based, mouse; details: overnight treatment, extracts 100 ug/mL, caffeine 500 uM, resveratrol 100 uM, control 100.01
Procedure: C2C12 cells (ATCC® CRL-1772) were seeded in 24- or 96-well culture plates as undifferentiated myoblasts and grown to 100% confluency in ATCC-formulated Dulbecco's Modified Eagle's Medium (DMEM) supplemented with 10% heat-inactivated fetal bovine serum (FBS). […] Differentiation medium consisted of ATCC-formulated DMEM supplemented with 2% heat-inactivated horse serum and was changed daily during the differentiation process. Cell culture conditions were maintained at 37° C. in a humidified atmosphere of 5% CO2/95% air. After 5 days of differentiation, cells were incubated in the presence or absence of macroalgae composition (with control). Cells were treated with macroalgae compositions and also control samples to check effect on said biomarkers. The compositions and control samples used are mentioned in the respective table, showing results of the test. The effect of select macroalgae compositions were assessed using the following assays: Concentrations of PGC-1α in differentiated C2C12 cells as a result of treatment with macroalgae composition were determined by ELISA (MyBiosource). Following overnight treatment, cell lysates were collected and centrifuged to remove cellular debris. […] The amount of PGC-1α captured by the anti-PGC-1α antibody was determined using a biotinylated-IgG antibody/HRP-streptavidin detection system.

H295R cells = experiment: Cortisol production immunoassay in H295R cells; format: cell-based, human; details: 24 h incubation
Procedure: It is a human adrenal cell line that presents a steroid secretion pattern and regulation similar to primary cultures of adrenal cells.
Cells were then incubated in the presence or absence of macroalgae composition for 24 h before assessing cortisol production.
To evaluate the effect of treatment with macroalgae composition on cortisol concentrations in H295R cells, the DetectX® (Arbor Assays) immunoassay was utilized. A cortisol standard was provided to generate a standard curve for the assay and all samples were read off the standard curve. Standards or samples were pipetted into a clear microtiter plate coated with an antibody. A cortisol-peroxidase conjugate was added to the standards and samples in the wells. The binding reaction was initiated by the addition of a monoclonal antibody to cortisol to each well. After 1 hour incubation, the plate was washed and substrate was added. The substrate reacted with the bound cortisol-peroxidase conjugate. After a short incubation, the reaction was stopped and the intensity of the generated color was detected in a microtiter plate reader capable of measuring 450 nm wavelength. The concentration of cortisol in the samples was then calculated.

[1] = system: insulin-like growth factor-1 (IGF-1); experiment: IGF-1 ELISA in differentiated C2C12 cells; format: cell-based, mouse; details: cell culture supernatants
Procedure: (§1) Mouse skeletal myoblasts C2C12 cells were used as a cell model to assess mitochondrial function and IGF-1 expression. Cells were cultured as undifferentiated myoblasts in high-serum growth media DMEM (Dulbecco's Modified Eagle Medium), supplemented with 10% FBS (Fetal bovine serum) and 1% penicillin/streptomycin. Cells were grown to full confluency at 37° C. in a humidified incubator with 5% CO2.
To evaluate the effect of treatment with macroalgae composition on insulin-like growth factor-1 (IGF-1) concentrations in differentiated C2C12 cells, the mouse IGF-1 enzyme-linked immunosorbent assay (ELISA) kit (Sigma) was utilized. The kit provides a quantitative measurement of mouse IGF-1 in cell culture supernatants by employing an antibody specific coated 96-well plate. Standards and samples were added to the coated plate and any IGF-1 present in the sample bound to the immobilized antibody. After washing away any unbound antibody, HRP-conjugated streptavidin was added to the wells. The wells were washed again, followed by addition of a colorimetric TMB reagent. Color developed in proportion to the amount of bound IGF-1. Addition of a stop solution changed the color from blue to yellow, and the color intensity was read at A450 with a microplate reader. Blank-corrected unknown sample protein concentrations were then extrapolated from a known standard curve.

C2C12 cells [2] = experiment: ATP production colorimetric assay in C2C12 myotubes; format: cell-based, mouse; details: extracts 100 ug/mL, caffeine 500 uM, creatine 1 uM, control 99.99
Procedure: C2C12 cells (ATCC® CRL-1772) were seeded in 24- or 96-well culture plates as undifferentiated myoblasts and grown to 100% confluency in ATCC-formulated Dulbecco's Modified Eagle's Medium (DMEM) supplemented with 10% heat-inactivated fetal bovine serum (FBS). […] Differentiation medium consisted of ATCC-formulated DMEM supplemented with 2% heat-inactivated horse serum and was changed daily during the differentiation process. Cell culture conditions were maintained at 37° C. in a humidified atmosphere of 5% CO2/95% air. After 5 days of differentiation, cells were incubated in the presence or absence of macroalgae composition (with control). […] The effect of select macroalgae compositions were assessed using the following assays:
To evaluate the effect of macroalgae composition on ATP levels, colorimetric assay kit (Sigma-Aldrich, St. Louis, Mo.) was used, which is an enzyme-linked approach that involves the conversion of ATP in the test sample to ADP via the action of glycerol kinase which catalyses the transfer of the phosphate group to glycerol. The reaction was monitored by use of colorimetric product whose concentration varies proportional to the amount of ATP present. […] After 30 minutes, the absorbance at 570 nm will be measured using a microplate reader, and ATP concentrations will be extrapolated from a standard curve.

C2C12 cells [3] = experiment: Mitochondrial oxygen consumption (MitoXpress probe) in differentiated C2C12 cells; format: cell-based, mouse; details: macroalgae composition 100 ug/ml
Procedure: as §1
Extracellular oxygen consumption in differentiated C2C12 cells was measured by assessing phosphorescence of a porphyrin-based, water soluble, oxygen sensitive probe (MitoXpress®-Xtra-HS, Luxcel Biosciences). Probe fluorescence is quenched by molecular oxygen (O2), resulting in lower probe signal. As cellular respiration reduces the concentration of O2, probe signal increases. The rate of this increase is related to the rate of cellular oxygen consumption. C2C12 cells were seeded in 96-well culture plates at a density of 2×10^4 cells/mL, induced to differentiate, and incubated with MitoXpress probe ([…] the presence or absence of macroalgae composition (100 ug/ml). High sensitivity mineral oil was added (100 μL/well) to increase assay sensitivity by minimizing interference from ambient O2. Probe fluorescence was measured (excitation 380 nm, emission 645 nm) using a fluorescence plate reader.

C2C12 cells [4] = experiment: Glycogen synthesis colorimetric assay in differentiated C2C12 cells; format: cell-based, mouse; details: for Glycogen Content - glucose + insulin: 30 mM glucose + 100 nM insulin, compared to non-treated samples (glucose only 100.0); for Glycogen Content - glucose only: 30 mM glucose, compared to non-treated samples (100.0)
Procedure: (§2) C2C12 cells (ATCC® CRL-1772) were seeded in 24- or 96-well culture plates as undifferentiated myoblasts and grown to 100% confluency in ATCC-formulated Dulbecco's Modified Eagle's Medium (DMEM) supplemented with 10% heat-inactivated fetal bovine serum (FBS). […] Differentiation medium consisted of ATCC-formulated DMEM supplemented with 2% heat-inactivated horse serum and was changed daily during the differentiation process. Cell culture conditions were maintained at 37° C. in a humidified atmosphere of 5% CO2/95% air. After 5 days of differentiation, cells were incubated in the presence or absence of macroalgae composition (with control). Cells were treated with macroalgae compositions and also control samples to check effect on said biomarkers. The compositions and control samples used are mentioned in the respective table, showing results of the test. The effect of select macroalgae compositions were assessed using the following assays:
(§3) Glucose uptake in C2C12 cells was determined by bioluminescent assay (Promega), based on the detection of 2-deoxyglucose-6-phosphate (2DG6P). When […] to cells, it is transported across the membrane and rapidly phosphorylated. However, further modification is not possible, resulting in accumulation within the cell. Addition of a 2DG6P detection reagent, leading to the generation of NADPH from 2DG6P, luciferin from NADPH, and light from luciferin, allows for detection of a bioluminescent signal. Overall, the luminescent signal is proportional to the concentration of 2DG6P, and thus the rate of glucose uptake. Glycogen synthesis was determined in cell culture lysates from differentiated C2C12 cells using a colorimetric assay kit from BioVision Inc. This involves the addition of glucoamylase to the samples that hydrolyzes glycogen to glucose; the glucose is then oxidized to form an intermediate that reduces OxiRed, forming a colored product with strong absorbance at 570 nm.

C2C12 cells [5] = experiment: Glucose uptake bioluminescent assay (2DG6P) in C2C12 cells; format: cell-based, mouse; details: for Glucose Uptake - glucose + insulin: 25 mM glucose + 1 uM insulin, compared to non-treated samples (glucose only 100.0)
Procedure: as §2, §3

C2C12 cells [6] = experiment: Mitochondrial mass (NAO probe fluorescence) in differentiated C2C12 cells; format: cell-based, mouse; details: fluorescent intensity relative to untreated control
Procedure: as §1
The effect of treatment with macroalgae composition on mitochondrial mass was assessed by measuring changes in fluorescent intensity in differentiated C2C12 cells. The nonylacridine orange (NAO) probe binds to cardiolipin in all mitochondria, regardless of their energetic state, providing a measure of mitochondrial mass and an indication of mitochondrial biogenesis. C2C12 cells were seeded in 96-well culture plates at a density of 2×10^4 cells/mL, induced to differentiate, and pre-treated with or without select macroalgae composition and controls. […] Probe fluorescence was measured (excitation 380 nm, emission 645 nm) using a fluorescence plate reader. Fluorescent intensity relative to untreated control was then calculated. To standardize probe fluorescence to protein content of the cells, total protein content (in μg) was assessed by bicinchoninic acid (BCA) using bovine serum albumin as standard.

Akt = experiment: BioPlex cell signaling assay, relative phosphorylation of Akt (PKB) in C2C12 cells; format: cell-based, mouse; details: differentiated C2C12 cells pre-treated 2 hours; ratio of fluorescence of phospho-protein to total protein
Procedure: (§4) The effects of macroalgae composition on biomarkers of sport nutrition based on protein synthesis platform were evaluated, wherein the compositions were tested with an initial MTT assay (MIT is a name of dye 3-(4,5-dimethylthiazol-2-yl)-2,5-diphenyltetrazolium bromide) to determine cytotoxicity and establish dose range for testing.
(§5) Test inputs chosen for the protein synthesis assay platform were assessed using BioPlex (BioRad) cell signaling assays, based on the principle of the sandwich ELISA. Capture antibodies directed against the desired biomarker were covalently coupled to magnetic beads, which reacted with the sample containing the biomarker of interest. After a series of wash steps to remove any unbound protein, a biotinylated detection antibody was added to create a “sandwich” complex. The final detection complex was formed with the addition of a streptavidin-phycoerythrin (SA-PE) conjugate, which serves as a fluorescent indicator. […] The beads were then re-suspended in assay buffer and read on the BioPlex MAGPIX system. […]
(§6) Phospho-PKB/PKB, Phospho-mTOR/mTOR, Phospho-p70S6k/p70S6k, their effects were more pronounced than creatine or whey protein. In Table 3 below, Phospho-PKB/PKB, Phospho-mTOR/mTOR, and Phospho-p70S6k/p70S6k are expressed as a ratio of the fluorescence of the phospho-protein divided by the fluorescence of the total protein.

[7] = system: mTOR (the mammalian target of rapamycin); experiment: BioPlex cell signaling assay, relative phosphorylation of mTOR in C2C12 cells; format: cell-based, mouse; details: differentiated C2C12 cells pre-treated 2 hours; ratio of fluorescence of phospho-protein to total protein
Procedure: as §4, §5, §6

p70S6k = experiment: BioPlex cell signaling assay, relative phosphorylation of p70S6k in C2C12 cells; format: cell-based, mouse; details: differentiated C2C12 cells pre-treated 2 hours; ratio of fluorescence of phospho-protein to total protein
Procedure: as §4, §5, §6

| Compound | PGC1-alpha production, Relative to Control (PGC-1α) | Cortisol (H295R cells) | IGF-1 [1] | ATP production, Relative to Control (C2C12 cells [2]) | Mitochondrial Oxygen consumption (C2C12 cells [3]) | Glycogen Content - glucose + insulin (C2C12 cells [4]) | Glycogen Content - glucose only (C2C12 cells [4]) | Glucose Uptake - glucose + insulin (C2C12 cells [5]) | Mitochondrial Mass (C2C12 cells [6]) | Phospho-PKB/PKB (Akt) | Phospho-mTOR/mTOR [7] | Phospho-p70S6k/p70S6k (p70S6k) | Glucose (G) Uptake - glucose only (C2C12 cells [5]; 25 mM glucose, compared to non-treated samples (100.0)) |
| --- | --- | --- | --- | --- | --- | --- | --- | --- | --- | --- | --- | --- | --- |
| Cn1c(=O)c2c(ncn2C)n(C)c1=O [Caffeine] | 192.96 | 65 | 130 | 225.83 | 157 | 164.7% | 115.3% | 198.7% | 146 |  |  |  |  |
| CN(CC(=O)O)C(=N)N [Creatine] |  |  |  | 233.17 |  |  |  |  |  | 191 | 192 | 162 |  |
| CC(C)C[C@H](N)C(=O)O [Leucine] |  | 65.3 | 127 |  | 144 | 158.2% | 111.1% | 203.7% | 157 |  |  |  |  |
| Oc1ccc(C=Cc2cc(O)cc(O)c2)cc1 [Resveratrol] | 220.96 |  |  |  |  | 223.9% | 142.9% | 291.0% |  |  |  |  | 132.4% |
| Insulin: control in protein synthesis assay; co-stimulus in glucose uptake and glycogen assays |  |  |  |  |  | 153.6% |  | 189.5% |  | 315 | 311 | 241 |  |
